Data reported in US7745619B2, “Vinca derivatives” (priority 2003, dated 2010).

Assays:
Format in all cases: cell-based
SW-620 = assay: NCI 60-cell line growth inhibition assay: SW-620; conditions: Homo sapiens, Colon, read-out: GI50
MCF7 = assay: NCI 60-cell line growth inhibition assay: MCF7; conditions: Homo sapiens, Breast, read-out: GI50
OVCAR-5 = assay: NCI 60-cell line growth inhibition assay: OVCAR-5; conditions: Homo sapiens, Ovarian, read-out: GI50
ACHN = assay: NCI 60-cell line growth inhibition assay: ACHN; conditions: Homo sapiens, Renal, read-out: GI50
NCI-H460 = conditions: Homo sapiens, Non-Small Cell Lung, read-out: GI50
KM12 = assay: NCI 60-cell line growth inhibition assay: KM12; conditions: Homo sapiens, Colon, read-out: GI50
UACC-257 = assay: NCI 60-cell line growth inhibition assay: UACC-257; conditions: Homo sapiens, Melanoma, read-out: GI50
CAKI-1 = assay: NCI 60-cell line growth inhibition assay: CAKI-1; conditions: Homo sapiens, Renal, read-out: GI50
SF-539 = assay: NCI 60-cell line growth inhibition assay: SF-539; conditions: Homo sapiens; CNS, SF-539; read-out: GI50
HCT-15 = assay: NCI 60-cell line growth inhibition assay: HCT-15; conditions: Homo sapiens, Colon, read-out: GI50
SN12C = assay: NCI 60-cell line growth inhibition assay: SN12C; conditions: Homo sapiens, Renal, read-out: GI50
MDA-MB-435 = assay: NCI 60-cell line growth inhibition assay: MDA-MB-435; conditions: Homo sapiens, Breast, read-out: GI50
M14 = assay: NCI 60-cell line growth inhibition assay: M14; conditions: Homo sapiens, Melanoma, read-out: GI50
PC-3 = assay: NCI 60-cell line growth inhibition assay: PC-3; conditions: Homo sapiens, Prostate, read-out: GI50
NCI-H522 = conditions: Homo sapiens, Non-Small Cell Lung, read-out: GI50
MDA-MB-231/ATCC = assay: NCI 60-cell line growth inhibition assay: MDA-MB-231/ATCC; conditions: Homo sapiens; Breast, MDA-MB-231/ATCC; read-out: GI50
SNB-75 = assay: NCI 60-cell line growth inhibition assay: SNB-75; conditions: Homo sapiens, CNS, read-out: GI50
RXF 393 = assay: NCI 60-cell line growth inhibition assay: RXF 393; conditions: Homo sapiens, Renal, read-out: GI50
EKVX = assay: NCI 60-cell line growth inhibition assay: EKVX; conditions: Homo sapiens, Non-Small Cell Lung, read-out: GI50
SF-295 = assay: NCI 60-cell line growth inhibition assay: SF-295; conditions: Homo sapiens, CNS, read-out: GI50
OVCAR-8 = assay: NCI 60-cell line growth inhibition assay: OVCAR-8; conditions: Homo sapiens, Ovarian, read-out: GI50
NCI/ADR-RES = conditions: Homo sapiens, Breast, read-out: GI50
SK-MEL-5 = assay: NCI 60-cell line growth inhibition assay: SK-MEL-5; conditions: Homo sapiens, Melanoma, read-out: GI50
A498 = assay: NCI 60-cell line growth inhibition assay: A498; conditions: Homo sapiens, Renal
From the text: The following data in Table 4 summarize the growth inhibition properties of several compounds of the present invention against 60-human transformed cell lines.

SK-OV-3 = assay: NCI 60-cell line growth inhibition assay: SK-OV-3; conditions: Homo sapiens, Ovarian, read-out: GI50
786-0 = assay: NCI 60-cell line growth inhibition assay: 786-0; conditions: Homo sapiens, Renal, read-out: GI50
COLO 205 = assay: NCI 60-cell line growth inhibition assay: COLO 205; conditions: Homo sapiens, Colon, read-out: GI50
U251 = assay: NCI 60-cell line growth inhibition assay: U251; conditions: Homo sapiens, U-251; CNS, U251; read-out: GI50
A549/ATCC = assay: NCI 60-cell line growth inhibition assay: A549/ATCC; conditions: Homo sapiens; Non-Small Cell Lung, A549/ATCC; read-out: GI50
MALME-3M = assay: NCI 60-cell line growth inhibition assay: MALME-3M; conditions: Homo sapiens; Melanoma, MALME-3M; read-out: GI50
LOX IMVI = assay: NCI 60-cell line growth inhibition assay: LOX IMVI; conditions: Homo sapiens, Melanoma, read-out: GI50
HOP-92 = assay: NCI 60-cell line growth inhibition assay: HOP-92; conditions: Homo sapiens, Non-Small Cell Lung, read-out: GI50
HCT-116 = assay: NCI 60-cell line growth inhibition assay: HCT-116; conditions: Homo sapiens, Colon, read-out: GI50
HCC-2998 = assay: NCI 60-cell line growth inhibition assay: HCC-2998; conditions: Homo sapiens; Colon, HCC-2998; read-out: GI50
DU-145 = assay: NCI 60-cell line growth inhibition assay: DU-145; conditions: Homo sapiens, Prostate, read-out: GI50
UO-31 = assay: NCI 60-cell line growth inhibition assay: UO-31; conditions: Homo sapiens, Renal, read-out: GI50
HOP-62 = assay: NCI 60-cell line growth inhibition assay: HOP-62; conditions: Homo sapiens, Non-Small Cell Lung, read-out: GI50
HS 578T = assay: NCI 60-cell line growth inhibition assay: HS 578T; conditions: Homo sapiens; Breast, HS 578T; read-out: GI50
K-562 = assay: NCI 60-cell line growth inhibition assay: K-562; conditions: Homo sapiens, K562; Leukemia, K-562; read-out: GI50
SNB-19 = assay: NCI 60-cell line growth inhibition assay: SNB-19; conditions: Homo sapiens, CNS, read-out: GI50
HT29 = assay: NCI 60-cell line growth inhibition assay: HT29; conditions: Homo sapiens, HT-29; Colon, HT29; read-out: GI50
OVCAR-4 = assay: NCI 60-cell line growth inhibition assay: OVCAR-4; conditions: Homo sapiens, Ovarian, read-out: GI50
OVCAR-3 = assay: NCI 60-cell line growth inhibition assay: OVCAR-3; conditions: Homo sapiens, Ovarian, read-out: GI50
NCI-H23 = conditions: Homo sapiens, Non-Small Cell Lung, read-out: GI50
SK-MEL-2 = assay: NCI 60-cell line growth inhibition assay: SK-MEL-2; conditions: Homo sapiens, Melanoma, read-out: GI50
UACC-62 = assay: NCI 60-cell line growth inhibition assay: UACC-62; conditions: Homo sapiens, Melanoma, read-out: GI50
MOLT-4 = assay: NCI 60-cell line growth inhibition assay: MOLT-4; conditions: Homo sapiens, Leukemia, read-out: GI50
TK-10 = assay: NCI 60-cell line growth inhibition assay: TK-10; conditions: Homo sapiens, Renal, read-out: GI50
BT-549 = assay: NCI 60-cell line growth inhibition assay: BT-549; conditions: Homo sapiens, Breast, read-out: GI50

C#Cc1ccc2[nH]c3c(c2c1)CCN1C[C@H](C[C@@](O)(CC)C1)C[C@]3(C(=O)OC)c1cc2c(cc1OC)N(C)[C@H]1[C@@](O)(C(=O)OC)[C@H](OC(C)=O)[C@]3(CC)C=CCN4CC[C@]21[C@@H]43 [Example 17, 12′-ethynylvinblastine]
GI50 (SW-620): < 10 nM | GI50 (MCF7): < 10 nM | GI50 (OVCAR-5): < 10 nM | GI50 (ACHN): < 10 nM | GI50 (NCI-H460): < 10 nM | GI50 (KM12): < 10 nM | GI50 (UACC-257): 22400 nM | GI50 (CAKI-1): 73.4 nM | GI50 (SF-539): < 10 nM | GI50 (HCT-15): 44 nM | GI50 (SN12C): < 10 nM | GI50 (MDA-MB-435): < 10 nM | GI50 (M14): < 10 nM | GI50 (PC-3): < 10 nM | GI50 (NCI-H522): < 10 nM | GI50 (MDA-MB-231/ATCC): < 10 nM | GI50 (SNB-75): < 10 nM | GI50 (RXF 393): < 10 nM | GI50 (EKVX): < 10 nM | GI50 (SF-295): < 10 nM | GI50 (OVCAR-8): < 10 nM | GI50 (NCI/ADR-RES): 2090 nM | GI50 (SK-MEL-5): < 10 nM | GI50 (A498): < 10 nM | GI50 (SK-OV-3): < 10 nM | GI50 (786-0): < 10 nM | GI50 (COLO 205): < 10 nM | GI50 (U251): < 10 nM | GI50 (A549/ATCC): 16.9 nM | GI50 (MALME-3M): < 10 nM | GI50 (LOX IMVI): < 10 nM | GI50 (HOP-92): 160 nM | GI50 (HCT-116): < 10 nM | GI50 (HCC-2998): < 10 nM | GI50 (DU-145): < 10 nM | GI50 (UO-31): 98.6 nM | GI50 (HOP-62): < 10 nM | GI50 (HS 578T): < 10 nM | GI50 (K-562): 53.1 nM | GI50 (SNB-19): < 10 nM | GI50 (HT29): < 10 nM | GI50 (OVCAR-4): 15.3 nM | GI50 (OVCAR-3): < 10 nM | GI50 (NCI-H23): < 10 nM | GI50 (SK-MEL-2): < 10 nM | GI50 (UACC-62): < 10 nM | GI50 (MOLT-4): < 10 nM | GI50 (TK-10): < 10 nM | GI50 (BT-549): < 10 nM
